Reference: US11260072B2, “MicroRNA-based methods and assays for osteocarcinoma” (3-D Matrix, Ltd., priority 2011, dated 2022)
d = 2'-deoxy (DNA); r = 2'-OH (RNA)

Tests used:
[1] = test system: CD133^low SaOS2 cells; test: siRNA knockdown, invasion assay; type: cell-based, human; conditions: siRNA 100 nM, 72 h after transfection
Method: Invasion assay. Invasion assays were performed by using 24-well BD BioCoat Invasion Chambers with Matrigel (Becton-Dickinson). 1×10^5 cells, suspended in 500 μL DMEM or RPMI 1640 medium without FBS, were added to the upper chamber, and DMEM or RPMI 1640 medium with 10% FBS was added to the lower chamber. After incubation for 24 h or 36 h, the cells on the upper surface of the filter were completely removed by wiping them with cotton swabs. The filters were fixed in methanol and stained with 1% toluidine blue in 1% sodium tetraborate (Sysmex). Filters were then mounted onto slides, and cells on lower surfaces were counted. Each assay was performed in triplicate.
(§1) Transfection with synthetic miRNAs, LNAs, and siRNAs. Synthetic hsa-miRs (Pre-miR-hsa-miR-1, -10b, -133a, and negative control (NC; Applied Biosystems, Table 2) and locked nucleic acids (LNAs) (LNA-1, -10b, -133a, and negative control, Exiqon, Table 3) were transfected into each type of cells at 30 nM each (final concentration) using DharmaFECT 1(GE Healthcare). Synthetic siRNAs (Bonac corporation, Table 4) were transfected into each type of cells at 100 nM each (final concentration) using DharmaFECT 1 (GE Healthcare). After 24 hours of incubation, cells were treated with chemotherapeutic agents for cytotoxicity assay or reseeded into invasion chambers for invasion assay.
(§2) Next, the expression of these molecules was reduced using siRNA-induced gene knockdown system to investigate whether these candidates are functionally important targets of miR-133a in osteosarcoma cells.

[2] = test system: CD133^low SaOS2 cells; test: siRNA knockdown, cell growth in the presence of cisplatin; type: cell-based, human; conditions: siRNA 100 nM, 72 h after transfection
Method: as §1, §2

[3] = test system: miR-1; test: knock-down of miR-1 in LNA-transfected CD133high SaOS2 cells; type: cell-based, human
Text: (§3) RNA isolation and quantitative real-time RT-PCR of mRNAs and miRNAs. Total RNA was purified from cells and tumor tissues with an RNeasy Mini Kit and RNase-Free DNase Set (QIAGEN). For quantitative polymerase chain reaction (qPCR) of mRNAs, cDNA was synthesized using High-Capacity cDNA Reverse Transcription Kit (Applied Biosystems). For each qPCR reaction, equal amounts of cDNA were mixed with Platinum SYBER Green qPCR SuperMix (Invitrogen) and specific primers (Table 1). Gene expression levels were normalized by beta actin (ACTB) or glyceraldehyde 3-phosphate dehydrogenase (GAPDH). For qPCR of miRNAs, miRNA was converted to cDNA using the TaqMan MicroRNA Reverse Transcription Kit (Applied Biosystems). RNU6B small nuclear RNA was amplified as an internal control. qPCR was performed using each miRNA-specific probe included with the TaqMan MicroRNA Assay on a Real-Time PCR System 7300 and SDS software (Applied Biosystems).
(§4) Transfection with synthetic miRNAs, LNAs, and siRNAs. […]

[4] = test system: CD133^low HOS-luc cells; test: tumorigenicity of CDDP-treated CD133low HOS-luc cells in mice; type: in vivo
Method: Tumor transplantation experiments. Animal experiments were performed in compliance with the guidelines of the Institute for Laboratory Animal Research, National Cancer Center Research Institute. Athymic nude mice or NOD/SCID mice (CLEA Japan) were purchased at 4 weeks of age and given at least 1 week to adapt to their new environment prior to tumor transplantation. On day 0, mice were anesthetized with 3% isoflurane and the right leg disinfected with 70% ethanol. Cells were aspirated into a 1 mL tuberculin syringe fitted with a 27-G needle. The needle was inserted through the cortex of the anterior tuberosity of the tibia with a rotating movement to avoid cortical fracture. Once the bone was traversed, the needle was inserted further to fracture the posterior cortex of the tibia. […]
Monitoring tumor growth, lung metastasis, and toxicity with/without LAN-anti-miR-133a. […] Ten minutes later, photons from firefly luciferase were counted using the IVIS imaging system (Xenogen Corp.) according to the manufacturer's instructions. […] The development of subsequent lung metastasis was monitored once a week in vivo by the bioluminescent imaging described above for 5 weeks. All data were analyzed using LivingImage software (version 2.50, Xenogen). […]

[5] = test system: CD133^low HOS cells; test: miR-133a expression in cisplatin-treated CD133low HOS cells; type: cell-based, human
Text: as §3

[6] = test system: 143B cells; test: qRT-PCR of miRNAs and CD133 mRNA in drug-treated 143B cells; type: cell-based, human; conditions: for CD133 mRNA expression: 143B cells; for expression of miR-1, miR-10b, and miR-133a: 3 days treatment, relative to untreated 143B cells
Text: as §3
In addition, the expression of miR-133a was enhanced by cisplatin in CD133^low HOS cells. […] CDDP-treated CD133^low HOS cells could form tumors with as few as 100 cells per injection, whereas the untreated CD133^low HOS cells could not (FIG. 23 and Table 9). […] Therefore, we reasoned that silencing of miR-133a before or during chemotherapy would prevent the increase of the expression of miR-133a, which enhanced TIC phenotypes and was induced by chemotherapeutics.

[7] = test system: 143B-luc; test: spontaneous lung metastasis model of osteosarcoma (143B-luc implanted orthotopically into tibia); type: in vivo, athymic nude mice
Method: Tumor transplantation experiments. Animal experiments were performed in compliance with the guidelines of the Institute for Laboratory Animal Research, National Cancer Center Research Institute. Athymic nude mice or NOD/SCID mice (CLEA Japan) were purchased at 4 weeks of age and given at least 1 week to adapt to their new environment prior to tumor transplantation. On day 0, mice were anesthetized with 3% isoflurane and the right leg disinfected with 70% ethanol. Cells were aspirated into a 1 mL tuberculin syringe fitted with a 27-G needle. The needle was inserted through the cortex of the anterior tuberosity of the tibia with a rotating movement to avoid cortical fracture. Once the bone was traversed, the needle was inserted further to fracture the posterior cortex of the tibia. A 100 μL volume of solution containing freshly isolated CD133^high and CD133^low HOS-Luc (10^2, 10^3, 10^4, 10^5 cells per site) or 143B-Luc (1.5×10^6) was injected while slowly moving back the needle.
Monitoring tumor growth, lung metastasis, and toxicity with/without LAN-anti-miR-133a. For the assessment of tumorigenicity between CD133^high and CD133^low HOS-Luc cells, NOD/SCID mice were injected with D-luciferin (150 mg/kg, Promega) by intraperitoneal injection. Ten minutes later, photons from firefly luciferase were counted using the IVIS imaging system (Xenogen Corp.) according to the manufacturer's instructions. Each experimental condition included 5 animals per group and monitoring once a week. For the evaluation of LNA-anti-miR-133a administration into spontaneous lung metastasis of osteosarcoma model mice, individual mice were injected with 10 mg/kg of LNA-anti-miR-133a or saline via the tail vain. LNA were injected on following days 4, 11, 18, 25, 32 postinoculation of 143B-Luc cells. Each experimental condition included 10 animals per group. The development of subsequent lung metastasis was monitored once a week in vivo by the bioluminescent imaging described above for 5 weeks. All data were analyzed using LivingImage software (version 2.50, Xenogen). On day 36, the primary tumor and lung in 5 mice of each group were resected at necropsy for their weight, bioluminescent, and histological analyses. The blood examination, weight of whole body as well as heart, liver, and skeletal muscle, and histopathological examination were performed for the assessment of toxicity.
To extend the in vitro findings and to determine whether silencing of miR-133a could be an effective therapeutic option for osteosarcoma treatment, the effect of LNA-133a on a spontaneous lung metastasis model of osteosarcoma was examined. Experimentally, 1.5×10^6 cells of 143B transfected with firefly luciferase gene (143B-luc) were implanted orthotopically into the right proximal tibia of athymic nude mice. The implanted tumor growth and the presence of distant metastases were analyzed weekly for luciferase bioluminescence using an in vivo imaging system (IVIS). […] To assess the efficacy of the new treatment protocol, results were compared with three control groups (n=10 each): a saline control group, an LNA group, and a CDDP group. At 5 weeks, half the mice in each group were euthanized for further analysis; the remaining mice were monitored for survival.

[8] = test system: miR-10b; test: knock-down of miR-10b in LNA-transfected CD133high SaOS2 cells; type: cell-based, human
Text: as §3, §4

SGMS2: synthetic siRNA against SGMS2 (Bonac corporation), Table 4 (sense CCACUAGAGUGGUGGAAAATT; antisense UUUUCCACCACUCUAGUGGTT; sugars from the 5' end r19 d2, backbone not given here)
invasiveness after knockdown [1]: enhanced invasiveness

UBA2: synthetic siRNA against UBA2 (Bonac corporation), Table 4 (sense GGACUGGGCUGAAGUACAATT; antisense UUGUACUUCAGCCCAGUCCTT; sugars from the 5' end r19 d2, backbone not given here)
invasiveness after knockdown [1]: enhanced invasiveness

DUSP11: synthetic siRNA against DUSP11 (Bonac corporation), Table 4 (sense CCAGAGGAUUUGCCAGAAATT; antisense UGUGUCUCGGAUUAGGAAGTT; sugars from the 5' end r19 d2, backbone not given here)
invasiveness after knockdown [1]: enhanced invasiveness | drug resistance after knockdown [2]: enhanced drug resistance

LNA-1: locked nucleic acid antisense to hsa-miR-1-2, 5′-ACATACTTCTTTACATTCCA-3′ (Exiqon) (LNA-modified (Exiqon), pattern not given here)
miR-1 expression [3]: knock-down

ANXA2: synthetic siRNA against ANXA2 (Bonac corporation), Table 4 (sense UGACCAAGAUGCUCGGGAUTT; antisense AUCCCGAGCAUCUUGGUCATT; sugars from the 5' end r19 d2, backbone not given here)
invasiveness after knockdown [1]: enhanced invasiveness | drug resistance after knockdown [2]: enhanced drug resistance

ROD1: synthetic siRNA against ROD1 (Bonac corporation), Table 4 (sense GGGAAUGACAGCAAGAAAUTT; antisense AUUUCUUGCUGUCAUUCCCTT; sugars from the 5' end r19 d2, backbone not given here)
drug resistance after knockdown [2]: enhanced drug resistance

N.N.[Cl][Pt][Cl] [CDDP, cis-diamtninedichloroplatinum (II)]
Tumor Incidence ([4]; 100 cells per injection, cells treated with CDDP): 5/5 | in vivo tumorigenicity of CD133low HOS population ([4]; mouse, in vivo): increased in vivo tumorigenicity | expression of miR-133a [5]: enhanced | CD133 mRNA expression [6]: induction | CD133 mRNA expression ([6]; listed as cisplatin): induced | expression of miR-1, miR-10b, and miR-133a [6]: increased level | Luminescence of lung (mean) ([7]; IVIS bioluminescence): 2855 | tumor growth ([7]; compared to the other groups, LNA-133a 10 mg kg-1 i.v., CDDP 2 mg kg-1 i.p.): No significant differences in tumor growth | Lung metastasis (mice with metastasis / mice in group) ([7]; day 35): 8/10 | Tumor weight (mean) ([7]; day 36, LNA-133a 10 mg kg-1 i.v., CDDP i.p.): 3.957 g

COc1cccc2c1C(=O)c1c(O)c3c(c(O)c1C2=O)C[C@@](O)(C(=O)CO)C[C@@H]3O[C@H]1C[C@H](N)[C@H](O)[C@H](C)O1 [DOX, doxorubicin]
CD133 mRNA expression [6]: induction | expression of miR-1, miR-10b, and miR-133a [6]: increased level

SNX30: synthetic siRNA against SNX30 (Bonac corporation), Table 4 (sense CCGAGAAGUUUGUGGUAAATT; antisense UUUACCACAAACUUCUCGGTT; sugars from the 5' end r19 d2, backbone not given here)
invasiveness after knockdown [1]: enhanced invasiveness

MAST4: synthetic siRNA against MAST4 (Bonac corporation), Table 4 (sense GGAGGUACCUUCUUCCAAATT; antisense UAUCAAACUUCCUCUUCUGTT; sugars from the 5' end r19 d2, backbone not given here)
drug resistance after knockdown [2]: enhanced drug resistance

LNA-10b: locked nucleic acid antisense to hsa-miR-10b, 5′-ACAAATTCGGTTCTACAGGGT-3′ (Exiqon) (LNA-modified (Exiqon), pattern not given here)
miR-10b expression [8]: knock-down
